Molecules are shown by their SMILES. Bounds are passed on as bounds.

One assay deals with cap-dependent translation in Flp-In-293 reporter cells. In words: Cellular cap-dependent translation inhibition assay (dual luciferase assay, DLA; Fluc/Rluc ratio, 24 hours). The class given is cell-based. The following applies: Homo sapiens, Flp-In-293, 24 h, dual luciferase assay, Flp-In-293 reporter cells, 24 hours, Fluc/Rluc ratio; read-out: DLA 205 IC50.
Take `Cc1cc(-c2cc(Cl)ccc2OCCn2c(C)nc3c(c2=O)CC(N(C)C(=O)C2CCN(CC(F)(F)F)CC2)CC3)c2scc(C(=O)O)c2n1` (stereo not drawn) [Compound 71]: the IC50 was greater than 5 µM.
The same measure, in the same setting: as for `Cc1nc2c(c(=O)n1CC#Cc1ccc(Cl)cc1-c1ccnc3c(C(=O)NS(C)(=O)=O)csc13)CC(N(C)C)CC2` (single isomer, unassigned) [Compound 266], the figure is greater than 5 µM; as for `Cc1nc2c(c(=O)n1CC#Cc1ccc(Cl)cc1-c1ccnc3c(C(=O)NS(C)(=O)=O)csc13)CC(N(C)Cc1ccncc1)CC2` (single isomer, unassigned) [Compound 295], less than 1 µM.
Take `Cc1cc(-c2cc(Cl)ccc2OCCn2c(C)nc3c(c2=O)CC(N(C)C2CC2)CC3)c2scc(C(=O)NS(=O)(=O)c3ccncc3)c2n1` (single isomer, unassigned) [Compound 284]: the IC50 was 1 to 5 µM.

The same assay, now with this note: Homo sapiens, Flp-In-293, 24 h, read-out: DLA 205 IC50, dual luciferase assay, Flp-In-293 reporter cells, 24 hours, Fluc/Rluc ratio.
As to `Cc1cc(-c2cc(Cl)ccc2OCCn2c(C)nc3c(c2=O)CC(N2CCOCC2)CC3)c2scc(C(=O)O)c2n1` (stereo not drawn) [Compound 9], the IC50 is less than 1 µM.

The assay is the same for the next values; noted with them: dual luciferase assay, Flp-In-293 reporter cells, 24 hours, Fluc/Rluc ratio; read-out: DLA 205 IC50.
With `Cc1cc(-c2cc(Cl)ccc2OCCn2c(C)nc3c(c2=O)CC(N(C)C2CCC(F)(F)C2)CC3)c2scc(C(=O)O)c2n1` (single isomer, unassigned) [Compound 338], the IC50 was less than 1 µM.
Turning to `Cc1cc(-c2cc(Cl)ccc2OCCn2c(C)nc3c(c2=O)CC(N(C)Cc2cc[nH]c(=O)c2)CC3)c2scc(C(=O)O)c2n1` (single isomer, unassigned) [Compound 247], the IC50 was greater than 5 µM.
Still for that read-out and setting: to `Cc1nc2c(c(=O)n1CC#Cc1ccc(Cl)cc1-c1ccnc3c(C(=O)NS(C)(=O)=O)csc13)CC(N1CCCCC1)CC2` (single isomer, unassigned) [Compound 316] belongs 1 to 5 µM; to `Cc1cc(-c2cc(Cl)ccc2OCCn2c(C)nc3c(c2=O)CC(N(CC(F)(F)F)C2CC2)CC3)c2scc(C(=O)NS(C)(=O)=O)c2n1` (single isomer, unassigned) [Compound 309], 1 to 5 µM.
On the same count and under the same terms, to `Cc1cc(-c2cc(Cl)ccc2OCCn2c(C)nc3c(c2=O)CC(N2CCC(F)(F)CC2)CC3)c2scc(C(=O)NS(C)(=O)=O)c2n1` (single isomer, unassigned) [Compound 254] belongs less than 1 µM; to `Cc1cc(-c2cc(Cl)ccc2OCCn2c(C)nc3c(c2=O)CC(N2CC4COCC4C2)CC3)c2scc(C(=O)NS(C)(=O)=O)c2n1` (single isomer, unassigned) [Compound 89], less than 1 µM; to `Cc1cc(-c2cc(Cl)ccc2OCCn2c(C)nc3c(c2=O)CC(N(C)C2CCCC2(F)F)CC3)c2scc(C(=O)O)c2n1` (single isomer, unassigned) [Compound 301], less than 1 µM.
On to `Cc1cc(-c2cc(Cl)ccc2OCCn2c(C)nc3c(c2=O)CC(N(C)C2(c4ccc(F)cc4)CC2)CC3)c2scc(C(=O)O)c2n1` (single isomer, unassigned) [Compound 281], for which the IC50 lay in the range of 1 to 5 µM.
Still for that read-out and setting: to `Cc1cc(-c2cc(Cl)ccc2OCCn2c(C)nc3c(c2=O)CC(N(CC(F)(F)F)C2CC2)CC3)c2scc(C(=O)O)c2n1` (single isomer, unassigned) [Compound 320] belongs 1 to 5 µM.
Same read-out and setting: to `Cc1cc(-c2cc(Cl)ccc2OCCn2c(C)nc3c(c2=O)CC(N(C2CC2)C2CC2)CC3)c2scc(C(=O)NS(C)(=O)=O)c2n1` (single isomer, unassigned) [Compound 292] belongs 1 to 5 µM; to `Cc1cc(-c2cc(Cl)ccc2OCCn2c(C)nc3c(c2=O)CC(N(C)C2CC2)CC3)c2scc(C(=O)O)c2n1` (single isomer, unassigned) [Compound 336], less than 1 µM.

In another assay the target is T1, human eIF4E protein (Homo sapiens, UniProt P06730).
T1 construct: purchased Novus NBP-45314
T1 sequence (P06730 whole entry): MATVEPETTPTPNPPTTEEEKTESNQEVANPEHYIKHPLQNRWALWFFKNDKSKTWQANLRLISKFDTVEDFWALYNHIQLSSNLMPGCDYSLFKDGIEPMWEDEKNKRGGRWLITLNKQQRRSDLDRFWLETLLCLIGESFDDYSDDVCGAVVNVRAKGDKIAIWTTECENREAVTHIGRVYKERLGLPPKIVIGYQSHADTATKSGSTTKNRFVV
In words: Biochemical competitive binding assay (TR-FRET competition, EDA-m7GDP-ATTO-647N probe). The following applies: read-out: hEIF4E TR-FRET IC50. The procedure, abridged: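 IC50 values come from 4-parameter fits of the normalized 665/620 nm TR-FRET ratio. Compound was first incubated 15 min with 4 nM recombinant His-eIF4E bound to 2.5 nM Eu-anti-His antibody, then 15 min with 5 nM m7GDP-ATTO-647N tracer, in pH 7.5 HEPES buffer with 100 mM KCl, Tween-20 and BSA.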
(In general: TR-FRET usually uses a lanthanide donor and a delayed reading to cut background.)
Take `Cc1cc(-c2cc(Cl)ccc2OCCn2c(C)nc3c(c2=O)CC(N(C)C2CCC(F)(F)C2)CC3)c2scc(C(=O)O)c2n1` (single isomer, unassigned) [Compound 338]: the IC50 is less than 0.1 µM.
Take `Cc1cc(-c2cc(Cl)ccc2OCCn2c(C)nc3c(c2=O)CC(N(C)Cc2cc[nH]c(=O)c2)CC3)c2scc(C(=O)O)c2n1` (single isomer, unassigned) [Compound 247]: the IC50 was less than 0.1 µM.
On the same count and under the same terms, as for `Cc1nc2c(c(=O)n1CC#Cc1ccc(Cl)cc1-c1ccnc3c(C(=O)NS(C)(=O)=O)csc13)CC(N1CCCCC1)CC2` (single isomer, unassigned) [Compound 316], the figure is less than 0.1 µM; as for `Cc1cc(-c2cc(Cl)ccc2OCCn2c(C)nc3c(c2=O)CC(N(CC(F)(F)F)C2CC2)CC3)c2scc(C(=O)NS(C)(=O)=O)c2n1` (single isomer, unassigned) [Compound 309], 0.1 to 0.5 µM; as for `Cc1cc(-c2cc(Cl)ccc2OCCn2c(C)nc3c(c2=O)CC(N2CCC(F)(F)CC2)CC3)c2scc(C(=O)NS(C)(=O)=O)c2n1` (single isomer, unassigned) [Compound 254], less than 0.1 µM.
The same measure, in the same setting: to `Cc1cc(-c2cc(Cl)ccc2OCCn2c(C)nc3c(c2=O)CC(N2CC4COCC4C2)CC3)c2scc(C(=O)NS(C)(=O)=O)c2n1` (single isomer, unassigned) [Compound 89] belongs less than 0.1 µM; to `Cc1cc(-c2cc(Cl)ccc2OCCn2c(C)nc3c(c2=O)CC(N(C)C2CCCC2(F)F)CC3)c2scc(C(=O)O)c2n1` (single isomer, unassigned) [Compound 301], less than 0.1 µM; to `Cc1cc(-c2cc(Cl)ccc2OCCn2c(C)nc3c(c2=O)CC(N(C)C2(c4ccc(F)cc4)CC2)CC3)c2scc(C(=O)O)c2n1` (single isomer, unassigned) [Compound 281], 0.1 to 0.5 µM.
Still for that read-out and setting: as for `Cc1cc(-c2cc(Cl)ccc2OCCn2c(C)nc3c(c2=O)CC(N(CC(F)(F)F)C2CC2)CC3)c2scc(C(=O)O)c2n1` (single isomer, unassigned) [Compound 320], the figure is 0.1 to 0.5 µM; as for `Cc1cc(-c2cc(Cl)ccc2OCCn2c(C)nc3c(c2=O)CC(N(C)C(=O)C2CCN(CC(F)(F)F)CC2)CC3)c2scc(C(=O)O)c2n1` (stereo not drawn) [Compound 71], less than 0.1 µM.
`Cc1cc(-c2cc(Cl)ccc2OCCn2c(C)nc3c(c2=O)CC(N2CCOCC2)CC3)c2scc(C(=O)O)c2n1` (stereo not drawn) [Compound 9]: the IC50 is less than 0.1 µM.
`Cc1cc(-c2cc(Cl)ccc2OCCn2c(C)nc3c(c2=O)CC(N(C2CC2)C2CC2)CC3)c2scc(C(=O)NS(C)(=O)=O)c2n1` (single isomer, unassigned) [Compound 292]: the IC50 was less than 0.1 µM.
The same measure, in the same setting: to `Cc1nc2c(c(=O)n1CC#Cc1ccc(Cl)cc1-c1ccnc3c(C(=O)NS(C)(=O)=O)csc13)CC(N(C)C)CC2` (single isomer, unassigned) [Compound 266] belongs 0.5 to 5 µM.
For the molecule `Cc1nc2c(c(=O)n1CC#Cc1ccc(Cl)cc1-c1ccnc3c(C(=O)NS(C)(=O)=O)csc13)CC(N(C)Cc1ccncc1)CC2` (single isomer, unassigned) [Compound 295], the IC50 was less than 0.1 µM.
Still for that read-out and setting: to `Cc1cc(-c2cc(Cl)ccc2OCCn2c(C)nc3c(c2=O)CC(N(C)C2CC2)CC3)c2scc(C(=O)O)c2n1` (single isomer, unassigned) [Compound 336] belongs less than 0.1 µM; to `Cc1cc(-c2cc(Cl)ccc2OCCn2c(C)nc3c(c2=O)CC(N(C)C2CC2)CC3)c2scc(C(=O)NS(=O)(=O)c3ccncc3)c2n1` (single isomer, unassigned) [Compound 284], less than 0.1 µM.

Another assay deals with COLO 205 colorectal tumor cells. In words: Tumor cell viability inhibition assay (CellTiter-Glo 2.0, 72 hours). In kind it is cell-based. The following applies: COLO 205 cell viability. The method in brief: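 IC50 derived by 4-parameter fitting after normalizing luminescence to DMSO and max-inhibition wells. Compounds tested as 11 concentrations in 4-fold steps on COLO 205 cells seeded at 1500 per well in RPMI-1640/10% FBS; ATP content measured with CellTiter-Glo 2.0 after 72 h.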
(In general: Cellular ATP, detected with luciferase, serves as a proxy for viable cell number.)
In turn, `Cc1cc(-c2cc(Cl)ccc2OCCn2c(C)nc3c(c2=O)CC(N(C)C2CCC(F)(F)C2)CC3)c2scc(C(=O)O)c2n1` (single isomer, unassigned) [Compound 338] gave an IC50 of less than 5 µM.
Same read-out and setting: as for `Cc1cc(-c2cc(Cl)ccc2OCCn2c(C)nc3c(c2=O)CC(N(C)Cc2cc[nH]c(=O)c2)CC3)c2scc(C(=O)O)c2n1` (single isomer, unassigned) [Compound 247], the figure is greater than 20 µM; as for `Cc1nc2c(c(=O)n1CC#Cc1ccc(Cl)cc1-c1ccnc3c(C(=O)NS(C)(=O)=O)csc13)CC(N1CCCCC1)CC2` (single isomer, unassigned) [Compound 316], 5 to 20 µM.
On the same count and under the same terms, to `Cc1cc(-c2cc(Cl)ccc2OCCn2c(C)nc3c(c2=O)CC(N(CC(F)(F)F)C2CC2)CC3)c2scc(C(=O)NS(C)(=O)=O)c2n1` (single isomer, unassigned) [Compound 309] belongs 5 to 20 µM; to `Cc1cc(-c2cc(Cl)ccc2OCCn2c(C)nc3c(c2=O)CC(N2CCC(F)(F)CC2)CC3)c2scc(C(=O)NS(C)(=O)=O)c2n1` (single isomer, unassigned) [Compound 254], less than 5 µM.
On the same count and under the same terms, as for `Cc1cc(-c2cc(Cl)ccc2OCCn2c(C)nc3c(c2=O)CC(N2CC4COCC4C2)CC3)c2scc(C(=O)NS(C)(=O)=O)c2n1` (single isomer, unassigned) [Compound 89], the figure is less than 5 µM.
`Cc1cc(-c2cc(Cl)ccc2OCCn2c(C)nc3c(c2=O)CC(N(C)C2CCCC2(F)F)CC3)c2scc(C(=O)O)c2n1` (single isomer, unassigned) [Compound 301] yielded an IC50 of 5 to 20 µM.
The same measure, in the same setting: to `Cc1cc(-c2cc(Cl)ccc2OCCn2c(C)nc3c(c2=O)CC(N(C)C2(c4ccc(F)cc4)CC2)CC3)c2scc(C(=O)O)c2n1` (single isomer, unassigned) [Compound 281] belongs 5 to 20 µM; to `Cc1cc(-c2cc(Cl)ccc2OCCn2c(C)nc3c(c2=O)CC(N(CC(F)(F)F)C2CC2)CC3)c2scc(C(=O)O)c2n1` (single isomer, unassigned) [Compound 320], 5 to 20 µM.
On the same count and under the same terms, as for `Cc1cc(-c2cc(Cl)ccc2OCCn2c(C)nc3c(c2=O)CC(N(C2CC2)C2CC2)CC3)c2scc(C(=O)NS(C)(=O)=O)c2n1` (single isomer, unassigned) [Compound 292], the figure is 5 to 20 µM; as for `Cc1cc(-c2cc(Cl)ccc2OCCn2c(C)nc3c(c2=O)CC(N(C)C2CC2)CC3)c2scc(C(=O)O)c2n1` (single isomer, unassigned) [Compound 336], less than 5 µM.

The assay is the same for the next values; noted with them: Homo sapiens, COLO 205, 72 h, COLO 205 cell viability.
Turning to `Cc1cc(-c2cc(Cl)ccc2OCCn2c(C)nc3c(c2=O)CC(N(C)C(=O)C2CCN(CC(F)(F)F)CC2)CC3)c2scc(C(=O)O)c2n1` (stereo not drawn) [Compound 71], the IC50 is greater than 20 µM.
Same read-out and setting: as for `Cc1nc2c(c(=O)n1CC#Cc1ccc(Cl)cc1-c1ccnc3c(C(=O)NS(C)(=O)=O)csc13)CC(N(C)C)CC2` (single isomer, unassigned) [Compound 266], the figure is greater than 20 µM.
The same measure, in the same setting: as for `Cc1nc2c(c(=O)n1CC#Cc1ccc(Cl)cc1-c1ccnc3c(C(=O)NS(C)(=O)=O)csc13)CC(N(C)Cc1ccncc1)CC2` (single isomer, unassigned) [Compound 295], the figure is less than 5 µM; as for `Cc1cc(-c2cc(Cl)ccc2OCCn2c(C)nc3c(c2=O)CC(N(C)C2CC2)CC3)c2scc(C(=O)NS(=O)(=O)c3ccncc3)c2n1` (single isomer, unassigned) [Compound 284], 5 to 20 µM.

The assay is the same for the next values; noted with them: Homo sapiens, COLO 205 cell viability.
Take `Cc1cc(-c2cc(Cl)ccc2OCCn2c(C)nc3c(c2=O)CC(N2CCOCC2)CC3)c2scc(C(=O)O)c2n1` (stereo not drawn) [Compound 9]: the IC50 is less than 5 µM.

The values above are taken from patent US20240246918A1, “COMPOUNDS AND COMPOSITIONS AS EIF4E INHIBITORS AND THE USES THEREOF” (Ribometrix, Inc., priority 2022, published 2024).
